Experimental data: patent US6589759B1, “Compositions and methods for producing platelets and/or proplatelets from megakaryocytes” (Trustees of Boston University, priority 1999, dated 2003)

What was measured:
[1] = system: Meg-01 cells; assay: Production of cGMP from megakaryocytes treated with SNO-glu (ELISA); type: cell-based, human; conditions: for cGMP: n = 2
Description: The Meg-01 cells were grown as described in Example 1. The Med-01 cells, in the presence and absence of TPO, were treated with 100 μM SNO-glu for varying lengths of time. The cells were collected by centrifugation (1000 rpm for 10 minutes), and then lysed with 6% trichloroacteic acid (TCA). The cGMP was extracted with distilled water-saturated ether. The cGMP was quantified using the standard ELISA assay (Caymen Chemical Inc., Ann Arbor, Mich.).

[2] = system: Meg-01 cells; assay: Platelet-sized particle production from Meg-01 cells by flow cytometry (GPIIIa positive); type: cell-based, human; conditions: for production of GPIIIa positive platelet-sized particles: Meg-01 cells pretreated with 100 ng/ml thrombopoietin for 72 hours, then 100 μM SNO-glu for 2 hours
Description: The production of platelet-sized particles in the Meg-01 cell line using flow cytometry was determined. Human megakaryoblastic leukemia cell line Meg-01 was obtained from American Type Culture Collection (Manassas, Va.) and grown in phenol red-free RPMI-1640 media (Gibco-BRL, Grand Island, N.Y.) supplemented with 10% fetal bovine serum at 37° C. in a humidified atmosphere of 5% CO2. The experiment to monitor platelet production by the megakaryocytoid cell line, Meg-01, were performed as follows: 10 ml of Meg-01 cells (1×10^5/ml) were treated with 100 ng/ml of thrombopoietin (TPO, Amgen, Thousand Oaks, Calif.) for 72 hours. The cells were then centrifuged at 1000 rpm for 10 minutes, washed with phosphate buffered saline (PBS) and resuspended in RPMI-1640 media. Meg-01 cells, in the presence and absence of TPO, were treated with 100 μM SNO-glu for 2 hours. The cells were collected by centrifugation (1000 rpm for 10 minutes), washed once in PBS, resuspended in 500 μl of 3% formaldehyde, and allowed to fix for 20 minutes at room temperature. After fixation, 100 μl of cells were labeled with fluorescein isothiocyanate-conjugated (FITC)-conjugated monoclonal mouse anti-human platelet glycoprotein IIIa, CD61 (GPIIIa, DAKO Corp. Carpinteria, Calif.) at a near saturating concentration and incubated at room temperature for 20 minutes. The sample was diluted in 100 μl of PBS and analyzed on a Coulter EPICS XL flow cytometer (Coulter, Miami, Fla.). DNA check flow cytometry beads purchased from Coulter were used for daily instrument calibration. Appropriate color compensation was set for FITC fluorescence and phycoerythrin fluorescence using 525 nm and 575 nm band pass filters, respectively. All data were saved in flow cytometry list mode files and analyzed using Coulter ELITE software, version 2.21. Platelet-sized particles were identified by characteristic log forward light scatter (LFS). Only those particles that bound the anti-GPIIIa-FITC antibody ([…] FITC-conjugated antibody) (Dako, Denmark) were analyzed (by gating the fluorescence signal).

Compound | cGMP ([1]; 100 μM SNO-Glu in the presence of TPO, 30 minutes) | cGMP ([1]; 100 μM, 5 minutes) | cGMP ([1]; 100 μM, 10 minutes) | cGMP ([1]; 100 μM, 20 minutes) | cGMP ([1]; 100 μM, 30 minutes) | production of cGMP (in words) ([1]; Meg-01 cells, 100 μM SNO-glu) | production of GPIIIa positive platelet-sized particles ([2]; listed as S-nitroso-glutathione) | production of GPIIIa positive platelet-sized particles ([2]; listed as SNO-glu) | formation of GPIIIa positive platelet-sized particles ([2]; Meg-01 cells, 100 μM SNO-glu for 2 hours, no TPO) | effect of added TPO on cGMP production during SNO-glu treatment ([1]; Meg-01 cells, TPO added during 100 μM SNO-glu treatment)
N[C@@H](CCC(=O)N[C@@H](CSN=O)C(=O)NCC(=O)O)C(=O)O [SNO-Glu, S-nitroso-glutathione] | 0.960 pmol cGMP/mg Protein | 263.1 pmol cGMP/mg Protein | 461.2 pmol cGMP/mg Protein | 472.9 pmol cGMP/mg Protein | 611.3 pmol cGMP/mg Protein | increased production of cGMP | promoted platelet-like particle formation | enhanced production of GPIIIa positive platelet-sized particles | formation of GPIIIa positive platelet-sized particle population | 
TPO: thrombopoiesis stimulating factor thrombopoietin (TPO, Amgen) |  |  |  |  |  |  |  |  |  | completely suppressed the production of cGMP
